Source: patent publication US20070142302A1, “PEPTIDYL PRODRUGS THAT RESIST P-GLYCOPROTEIN MEDIATED DRUG EFFLUX” (The Curators of the University of Missouri, priority 2004, published 2007)
Entries after “also recorded” stand apart in the source; their conditions may differ. One block for each molecule: values may come before it. Square brackets hold non-standard residues; d marks the D form. Peptide text beside a SMILES is read from it. Sar = CNCC(=O)O

Experiments:
peptide transporter [1] = test: Uptake of [^3H]Gly-Sar by MDCKII-MDR1 cells in the presence of drug/derivative; assay type: cell-based, dog; settings: for Uptake of [^3H]Gly-Sar: control 0.033; for Inhibition of [^3H]Gly-Sar uptake: MDCKII-MDR1 cells, quinidine and derivatives
Protocol: Studies were performed to investigate whether derivatives of quinidine are substrates for a nutrient peptide transport system.
Unlabeled Gly-Sar at concentrations of 1 and 2 mM reduced the uptake of [^3H]Gly-Sar from 0.033 to 0.026 pmol/(min mg) (20%) and 0.019 pmol/(min mg) (41%), respectively (FIG. 9).

[2] = tested on: MDCKII-MDR1 cell homogenates; settings: dog
Protocol: Confluent MDCKII-MDR1 cells were washed three times with Dulbecco's phosphate buffered saline (DPBS) (130 mM NaCl, 7.5 mM Na2HPO4, 1.5 mM KH2PO4, 0.5 mM MgSO4, 1 mM CaCl2, […] and 5 mM glucose). Cells were then isolated with the aid of a mechanical scrapper and suspended in two volumes of water and homogenized (Multipro variable speed homogenizer, DREMEL; Racine, Wis.). Suitable dilutions were made to achieve a final protein concentration of 0.25 mg/mL. Protein content was determined according to the method of Bradford (Bradford, Anal. Biochem., 72, 248 (1976)) with BioRad protein estimation kit.
An aliquot (800 μL) of the cell homogenate was incubated with 200 μL (30 μg/mL) prodrug solution at 37° C. in a shaking water bath (60 rpm). One hundred microlitres samples were withdrawn at predetermined time points and an equal volume of ice-cold acetonitrile:methanol (5:4) mixture was added to stop the enzymatic reaction. Samples were stored at −80° C. until further analysis.

[3] = buffer
Protocol: Stability in DPBS was determined by incubating 200 μL prodrug solution with 800 μL DPBS with pH adjusted to 5 and 7.4. Slope of the line of “log percentage prodrug remaining versus time” plot was employed to calculate the degradation rate constants.

P-gp [4] = target: P-gp (Homo sapiens, UniProt P08183); settings: MDCKII-MDR1 cells
Text: Two different concentrations were employed to examine the effect of prodrug concentration on P-gp inhibition.

peptide transporter [5] = test: Uptake of [^3H]Gly-Sar by MDCKII-MDR1 cells in the presence of drug/derivative; assay type: cell-based, dog; settings: for Effect on [^3H]Gly-Sar uptake: 100 μM SQV or prodrug; for Reduction of [^3H]Gly-Sar uptake: 100 μM prodrug; for Concentration dependence of inhibition of [^3H]Gly-Sar uptake: SQV prodrugs, different concentrations up to 100 μM
[6] = tested on: MDCKII-MDR1 cell monolayers; test: in vitro
Protocol: (§1) Confluency was assessed by light microscopy.
(§2) Transport studies were conducted with MDCKII-MDR1 cell monolayers grown on 12-well Transwell® inserts (12 mm diameter). The medium was aspirated, and cell monolayers were washed three times (10 minutes per wash) with DPBS (pH 7.4). Volumes of the apical and basolateral chambers were 0.5 and 1.5 ml, respectively. Transport experiments were conducted for a period of 3 hours. Aliquots (200 μl) were withdrawn at predetermined time intervals, i.e., 15, 30, 45, 60, 90, 120, 150, and 180 minutes and replaced with fresh DPBS (pH 7.4) to maintain sink conditions. Samples were stored at −80° C. until further analysis. Experiments designed to investigate the effect of inhibitors involved preincubation of the cells with the inhibitor for a period of 30 minutes (inhibitor solution was added to both donor and receiver chambers) prior to the addition of the drug solution (also containing the inhibitor) to initiate the transport study. All transport experiments were performed at 37° C.
(§3) The HPLC system comprised an HP 1050 pump, an Agilent 1100 series fluorescence detector, and an Alcott autosampler (model 718 HPLC). A C(8) Luna column (250 mm×4.6 mm); Phenomenex, Torrance, Calif.) was employed in the analysis. The mobile phase consisted of 20 mM phosphate buffer (pH adjusted to 2.5) and 12% acetonitrile as the organic modifier. The parent drug and the derivative were detected with a fluorescence detector (λex=240 nm, λem=450 nm).
(§4) Linear regression analysis of the amounts transported as a function of time yielded the rate of transport across the cell monolayer (dM/dt). The rate divided by the cross-sectional are available for transport (A) generated the steady-state flux as shown in Equation 1. flux=(dM/dt)/A (Equation 1) Permeability was calculated by normalizing the steady-state flux to the donor concentration (Cd) of the drug according to Equation 2. Permeability=flux/Cd (Equation 2)
(§5) Transport studies with MDCKII-MDR1 cell monolayers were carried out as described in Example 7. […] Detection issues of the prodrug and/or parent drug in the acceptor chamber was considered for the selection of prodrug concentration. Aliquots (200 μL) were withdrawn at predetermined time intervals, i.e., 15, 30, 45, 60, 90, 120, 150, 180 min, respectively, and replaced with fresh DPBS, pH 7.4, to maintain sink conditions. Dilutions were taken into account for the calculations. Samples were stored at −80° C. until further analysis. All transport experiments were performed at 37° C.
(§6) The HPLC system was comprised of HP 1050 pump, Waters dual wavelength absorbance UV detector, and an Alcott auto sampler (model 718AL HPLC). A C(8) Luna column (250 mm×4.6 mm; Phenomenex, Torrance, Calif.) was employed for the separation of analytes. Mobile phase composed of acetonitrile:water:triethylamine (55:44:1%, v/v/v) and the pH was adjusted to 6.5 with o-phosphoric acid. Flow rate was maintained at 0.8 mL/min and detection wavelength was set at 240 nm.
(§7) Intact prodrug transported and breakdown products, formed during the transport study, were analyzed. Cumulative amount of drug transported (the sum of prodrug and regenerated parent drug) was plotted as a function of time. Apparent permeabilities (Papp) were determined from the linear portion of the cumulative amount versus time plot.

in vitro = settings: dog, MDCK-MDR1
Protocol: as §1, §2, §3, §4, §5, §6, §7

P-gp [7] = target: P-gp (Oryctolagus cuniculus, UniProt Q6UUW3); settings: rPCEC cells, equimolar concentrations
P-gp [8] = settings: rabbit, in vivo
Protocol: Adult male New Zealand albino rabbits weighing between 2-2.5 kg were obtained from Myrtle's rabbitry, Thompson Station, Tenn. Throughout an experiment, the animals were kept under anesthesia with ketamine HCl (35 mg/kg) and xylazine (3.5 mg/kg) given intramuscularly every hour. Pupils were dilated with two drops of 1% tropicamide prior to implantation of microdialysis probes. Linear probes were implanted in the anterior chamber using 25-gauge needles. They were inserted across the cornea just above the corneal scleral limbus so that they traversed through the center of the anterior chamber to the opposite end of the cornea, as evidenced by microscopic examination. The sample-collecting end of the linear probe was inserted carefully into the beveled edge end of the needle. The needle was retracted slowly, leaving the probe in the dialyzing membrane in the middle of the anterior chamber. The outlets of the probes were fixed to prevent any disturbances during sample collection. The probes were perfused with isotonic IPBS (pH 7.4) at a flow rate of 2 μl/min using a CMA/100 microinjection pump. After probe implantation, the animals were allowed to stabilize for 2 hours prior to the initiation of any study. […] Samples obtained in the study were analyzed by a scintillation counter (LS 6500, Beckman Instruments, Inc., Fullerton, Calif.).

P-gp (human MDR1) = test: in vitro; settings: dog, MDCK-MDR1, pH 7.4
Protocol: as §1, §2, §3, §4, §5, §6, §7

P-gp (Homo sapiens, UniProt P08183), sequence (P08183 whole entry): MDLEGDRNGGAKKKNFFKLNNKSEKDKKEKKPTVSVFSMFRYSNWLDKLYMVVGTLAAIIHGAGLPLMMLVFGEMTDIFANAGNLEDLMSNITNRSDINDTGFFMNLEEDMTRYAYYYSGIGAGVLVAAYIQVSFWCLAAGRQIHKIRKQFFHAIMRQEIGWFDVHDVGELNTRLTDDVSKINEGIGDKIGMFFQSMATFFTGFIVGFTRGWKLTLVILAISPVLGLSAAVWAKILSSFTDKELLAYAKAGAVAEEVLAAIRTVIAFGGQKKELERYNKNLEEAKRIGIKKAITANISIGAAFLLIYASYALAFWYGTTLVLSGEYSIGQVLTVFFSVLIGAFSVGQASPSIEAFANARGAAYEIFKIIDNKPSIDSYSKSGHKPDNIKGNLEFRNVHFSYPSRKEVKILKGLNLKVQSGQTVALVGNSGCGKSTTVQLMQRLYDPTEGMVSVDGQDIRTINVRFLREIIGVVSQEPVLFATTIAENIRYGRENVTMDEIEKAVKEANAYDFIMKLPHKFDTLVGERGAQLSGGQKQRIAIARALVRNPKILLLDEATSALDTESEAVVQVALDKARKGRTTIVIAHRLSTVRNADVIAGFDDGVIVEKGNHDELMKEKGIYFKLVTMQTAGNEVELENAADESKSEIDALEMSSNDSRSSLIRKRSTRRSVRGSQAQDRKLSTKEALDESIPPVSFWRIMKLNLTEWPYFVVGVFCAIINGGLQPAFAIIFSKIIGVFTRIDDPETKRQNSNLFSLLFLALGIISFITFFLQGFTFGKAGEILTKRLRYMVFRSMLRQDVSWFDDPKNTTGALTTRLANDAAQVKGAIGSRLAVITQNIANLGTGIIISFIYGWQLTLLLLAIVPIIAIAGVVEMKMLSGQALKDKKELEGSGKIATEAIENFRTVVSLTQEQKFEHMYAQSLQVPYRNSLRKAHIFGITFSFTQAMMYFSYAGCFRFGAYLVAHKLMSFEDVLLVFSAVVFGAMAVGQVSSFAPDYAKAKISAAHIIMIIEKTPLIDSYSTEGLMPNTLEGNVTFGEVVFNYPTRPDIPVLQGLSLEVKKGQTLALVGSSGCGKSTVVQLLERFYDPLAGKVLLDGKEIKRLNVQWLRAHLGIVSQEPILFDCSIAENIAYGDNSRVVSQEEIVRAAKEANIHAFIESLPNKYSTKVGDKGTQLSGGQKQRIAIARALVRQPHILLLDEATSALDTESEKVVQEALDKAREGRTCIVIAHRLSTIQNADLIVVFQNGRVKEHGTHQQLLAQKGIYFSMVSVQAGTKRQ
P-gp (Oryctolagus cuniculus, UniProt Q6UUW3), sequence (Q6UUW3 1-1279): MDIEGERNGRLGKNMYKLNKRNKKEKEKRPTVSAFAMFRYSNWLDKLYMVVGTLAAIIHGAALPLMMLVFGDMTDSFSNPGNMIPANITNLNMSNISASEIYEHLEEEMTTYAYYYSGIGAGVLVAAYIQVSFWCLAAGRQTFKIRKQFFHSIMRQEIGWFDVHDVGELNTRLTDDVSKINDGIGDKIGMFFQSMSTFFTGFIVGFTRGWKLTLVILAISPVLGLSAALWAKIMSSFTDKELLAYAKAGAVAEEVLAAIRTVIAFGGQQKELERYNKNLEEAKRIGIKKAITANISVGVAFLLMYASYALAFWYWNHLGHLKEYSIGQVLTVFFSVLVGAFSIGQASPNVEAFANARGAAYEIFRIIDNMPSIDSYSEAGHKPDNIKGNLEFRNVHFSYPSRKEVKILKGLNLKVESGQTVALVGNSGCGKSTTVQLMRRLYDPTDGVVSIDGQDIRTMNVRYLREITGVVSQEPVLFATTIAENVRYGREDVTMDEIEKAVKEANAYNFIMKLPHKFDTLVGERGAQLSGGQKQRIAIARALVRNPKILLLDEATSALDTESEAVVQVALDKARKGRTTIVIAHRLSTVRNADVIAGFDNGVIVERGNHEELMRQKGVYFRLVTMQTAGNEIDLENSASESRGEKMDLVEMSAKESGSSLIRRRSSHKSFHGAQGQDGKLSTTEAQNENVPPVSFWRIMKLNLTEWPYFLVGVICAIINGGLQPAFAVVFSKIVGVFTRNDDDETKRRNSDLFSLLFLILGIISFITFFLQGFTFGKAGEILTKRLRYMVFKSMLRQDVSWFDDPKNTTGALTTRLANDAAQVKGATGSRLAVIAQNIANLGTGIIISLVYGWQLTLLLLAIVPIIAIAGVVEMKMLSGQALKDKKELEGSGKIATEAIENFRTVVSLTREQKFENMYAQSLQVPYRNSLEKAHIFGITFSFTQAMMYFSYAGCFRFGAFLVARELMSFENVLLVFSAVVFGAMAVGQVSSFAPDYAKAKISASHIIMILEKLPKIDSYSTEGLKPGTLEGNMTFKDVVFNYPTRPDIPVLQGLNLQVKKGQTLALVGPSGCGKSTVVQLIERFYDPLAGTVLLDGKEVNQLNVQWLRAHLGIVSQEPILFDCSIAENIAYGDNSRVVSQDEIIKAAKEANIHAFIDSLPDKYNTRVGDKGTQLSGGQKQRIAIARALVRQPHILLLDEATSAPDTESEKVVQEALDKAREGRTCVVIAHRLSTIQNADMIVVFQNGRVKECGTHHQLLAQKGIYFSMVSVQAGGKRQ

Structure (SMILES): CN(CC(=O)O)C(=O)CN [Gly-Sar, Glycyl-Sarcosine] (H-Gly-[Sar]-OH)
Reduction of [^3H]Gly-Sar uptake (peptide transporter [1]; 1 mM unlabeled Gly-Sar): 20%
Uptake of [^3H]Gly-Sar (peptide transporter [1]; 1 mM unlabeled Gly-Sar): 0.026 pmol/min/mg
Reduction of [^3H]Gly-Sar uptake (peptide transporter [1]; 2 mM unlabeled Gly-Sar): 41%
Uptake of [^3H]Gly-Sar (peptide transporter [1]; 2 mM unlabeled Gly-Sar): 0.019 pmol/min/mg
Concentration dependence of [^3H]Gly-Sar cellular accumulation (peptide transporter [1]; unlabeled Gly-Sar 1 mM and 2 mM): concentration dependent decrease; also recorded: concentration dependent reduction

Half-life (t1/2) in MDCK-MDR1 cell homogenates [2]: 1.75 ± 0.11 h
Half-life (t1/2) in DPBS, pH 5 [3]: 34.5±0.85 h
Half-life (t1/2) in DPBS, pH 7.4 [3]: 13.1±0.33 h
Concentration at which the prodrug saturates P-gp (P-gp [4]): 75 µM
Efflux ratio (BL Papp/AP Papp) ([6]; MDCK-MDR1): 6
Structure (SMILES): CC(C)[C@H](NC(=O)CN)C(=O)O[C@H](CN1C[C@H]2CCCC[C@H]2C[C@H]1C(=O)NC(C)(C)C)[C@H](Cc1ccccc1)NC(=O)[C@H](CC(N)=O)NC(=O)c1ccc2ccccc2n1 [Gly-Val-SQV, Gly-Val-saquinavir]
Effect on [^3H]Gly-Sar uptake (peptide transporter [5]): significantly decreased
Reduction of [^3H]Gly-Sar uptake (peptide transporter [5]): 42%
Concentration dependence of inhibition of [^3H]Gly-Sar uptake (peptide transporter [5]): concentration dependent inhibition

Structure (SMILES): CC(C)(C)NC(=O)[C@@H]1C[C@@H]2CCCC[C@@H]2CN1C[C@@H](O)[C@H](Cc1ccccc1)NC(=O)[C@H](CC(N)=O)NC(=O)c1ccc2ccccc2n1 [SQV, saquinavir, reference compound]
Effect on [^3H]Gly-Sar uptake (peptide transporter [5]): did not demonstrate any significant inhibition

Structure (SMILES): C=CC1CN2CCC1CC2C(OC(=O)C(N)C(C)C)c1ccnc2ccc(OC)cc12 (centres unmarked) [Val-Q, Val-Quinidine]
Inhibition of [^3H]Gly-Sar uptake (peptide transporter [1]): concentration dependent inhibition
Difference between AP-BL and BL-AP permeability ([6]; MDCK-MDR1): equivalent
Apparent permeability Papp AP-BL ([6]; MDCK-MDR1, pH 7.4): 5.13±0.49×10^−6 cm.s^−1
Apparent permeability Papp BL-AP ([6]; MDCK-MDR1, pH 7.4): 6.17±1.28×10^−6 cm.s^−1

Structure (SMILES): C=C[C@H]1CN2CC[C@H]1C[C@@H]2[C@@H](OC(=O)[C@@H](NC(=O)[C@@H](N)C(C)C)C(C)C)c1ccnc2ccc(OC)cc12 [Val-Val-Q, Val-Val-Quinidine]
Inhibition of [^3H]Gly-Sar uptake (peptide transporter [1]): concentration dependent inhibition

Half-life (t1/2) in MDCK-MDR1 cell homogenates [2]: 6.6 ± 0.56 h
Half-life (t1/2) in DPBS, pH 5 [3]: 94.8±21.4 h
Half-life (t1/2) in DPBS, pH 7.4 [3]: 18.3±1.4 h
Concentration at which the prodrug saturates P-gp (P-gp [4]): 50 µM
Efflux ratio (BL Papp/AP Papp) ([6]; MDCK-MDR1): 6
Structure (SMILES): CC(C)[C@H](N)C(=O)N[C@H](C(=O)O[C@H](CN1C[C@H]2CCCC[C@H]2C[C@H]1C(=O)NC(C)(C)C)[C@H](Cc1ccccc1)NC(=O)[C@H](CC(N)=O)NC(=O)c1ccc2ccccc2n1)C(C)C [Val-Val-SQV, Val-Val-saquinavir]
Effect on [^3H]Gly-Sar uptake (peptide transporter [5]): significantly decreased
Reduction of [^3H]Gly-Sar uptake (peptide transporter [5]): 35%
Concentration dependence of inhibition of [^3H]Gly-Sar uptake (peptide transporter [5]): concentration dependent inhibition

Papp (in vitro): < 2 nm/s
[^14C]mannitol transport across the cell monolayer ([6]; dog, MDCK-MDR1): < 0.5 %/h
Structure (SMILES): OC[C@@H](O)[C@@H](O)[C@H](O)[C@H](O)CO [[^14C]mannitol, mannitol, reference compound]

Structure (SMILES): C=C[C@H]1C[N@@]2CC[C@H]1C[C@@H]2[C@@H](O)c1ccnc2ccc(OC)cc12 [quinidine, reference compound]
Inhibition of [^3H]Gly-Sar uptake (peptide transporter [1]): did not demonstrate any inhibition
Inhibitory effect on P-gp mediated efflux ([^3H]erythromycin uptake) (P-gp [7]): high inhibitory effect
Inhibition of the P-gp mediated efflux pump (P-gp [8]): caused inhibition
Papp A→B at 3 h, 10 μM (P-gp (human MDR1)): 65 nm/s
Papp B→A at 3 h, 10 μM (P-gp (human MDR1)): 183 nm/s
Difference between AP-BL and BL-AP permeability ([6]; MDCK-MDR1): three fold difference
